Source: patent publication US20260184727A1, “SOLID FORMS OF MACROCYCLIC COMPOUNDS AND USES THEREOF” (AMGEN INC., priority 2024, published 2026)
Values after ≈ are worked out from the molar mass of the structure shown. Read-outs that look alike come from different tables or passages of the source. Each block holds one compound with its values, some of them ahead of it.

Columns and labels:
[1] = Moisture sorption analysis (DVS); type: physicochemical; settings: for moisture uptake (DVS): 25° C.
[2] = Moisture sorption analysis (DVS); type: physicochemical; settings: for hygroscopicity by DVS isotherm / moisture uptake (DVS): 25° C.
Method: Moisture Sorption Analysis-Moisture sorption isotherm was determined using a DVS Endeavour at 25° C. in an aluminum pan with water as the solvent (closed loop) and nitrogen gas flow at 200 sccm. The sample was analyzed from 40% to 0% to 90% to 0% to 90% to 0% to 40% RH in 5% RH steps.

[3] = Physical and chemical stability of Form 1E; type: physicochemical
[4] = PK properties of Form 1E in male dogs under fasted and fed conditions; type: in vivo; settings: for AUC(0-inf) / AUC(0-t) / CL/F / Cmax / MRT / Tmax / half-life: male, dog, plasma, po; for half-life: read-out: t1/2, z (converted)
[5] = Single dose dog PK, Form 1E compared to Compound A free base; type: in vivo, dogs; settings: FIG. 5C
Method: The pharmacokinetic (PK) properties of Form 1E was evaluated in dogs.

[6] = Comparative solubilities of Form 1 and Form 1E in biorelevant media; type: physicochemical; settings: for solubility: read-out: Solubility Conc
[7] = 30 mg/kg, pH 2, male dogs, Study A, 30.0 mg/kg p.o., Vehicle 1 (water/malonic acid pH 2.0), Fasted
[8] = 30 mg/kg, pH 2, male dogs, Study A, 30.0 mg/kg p.o., Vehicle 1 (water/malonic acid pH 2.0), Fed (kibble)
[9] = 50 mg/kg, pH 7, male dogs, Study B, Vehicle 2 (water/MSA pH7.0), Fasted
[10] = 50 mg/kg, pH 7, male dogs, Study B, Vehicle 2 (water/MSA pH7.0), Fed (high fat)

- moisture uptake (DVS) ([1]; at 95% relative humidity): 4.7 wt. %
- hygroscopicity by DVS isotherm [2]: hygroscopic
Compound: O=C1OCCCc2c(Cl)cc3[nH]ncc3c2-c2ncc3c(nc(OC[C@@]45CCCN4C[C@H](F)C5)nc3c2F)N2CCOC[C@H](C2)O1 [Form 1B]

- hygroscopicity as per TGA and XRPD analysis ([1]; judged from TGA and XRPD, no DVS reported): hygroscopic
Compound: O=C1OCCCc2c(Cl)cc3[nH]ncc3c2-c2ncc3c(nc(OC[C@@]45CCCN4C[C@H](F)C5)nc3c2F)N2CCOC[C@H](C2)O1 [Form A1-A]

- hygroscopicity by DVS isotherm [2]: hygroscopic
- moisture uptake (DVS) ([2]; at 80% RH): 3.08 wt. %
Compound: O=C1OCCCc2c(Cl)cc3[nH]ncc3c2-c2ncc3c(nc(OC[C@@]45CCCN4C[C@H](F)C5)nc3c2F)N2CCOC[C@H](C2)O1 [Form C-P]

- moisture uptake (DVS) ([1]; at 95% relative humidity): 5.4 wt. %
- hygroscopicity by DVS isotherm [2]: hygroscopic
Compound: O=C1OCCCc2c(Cl)cc3[nH]ncc3c2-c2ncc3c(nc(OC[C@@]45CCCN4C[C@H](F)C5)nc3c2F)N2CCOC[C@H](C2)O1 [Form 1A]

- behaviour in DVS at 95% relative humidity ([1]; at 95% relative humidity): deliquescence
- hygroscopicity by DVS isotherm [2]: hygroscopic
- moisture uptake (DVS) ([2]; at 85% relative humidity): 4.0 wt. %
Compound: O=C1OCCCc2c(Cl)cc3[nH]ncc3c2-c2ncc3c(nc(OC[C@@]45CCCN4C[C@H](F)C5)nc3c2F)N2CCOC[C@H](C2)O1 [Form C1]

- physical stability ([3]; accelerated conditions): physically stable
- chemically stable for ([3]; at 5° C.): more than 2 years
- plasma exposure (Cmax and AUC), fed versus fasted conditions ([4]; dogs, FIGS. 5D and 5E, kibble or high fat diet): did not show a difference
- AUC(0-inf) [4, 7]: 14.2 µM·h
- AUC(0-t) [4, 7]: 14.1 µM·h
- CL/F [4, 7]: 73.5 mL/min/kg
- Cmax [4, 7]: 5820 nM
- MRT [4, 7]: 3.16 h
- Tmax [4, 7]: 0.312 h
- half-life [4, 7]: 2.67 h
- AUC(0-inf) [4, 8]: 17 µM·h
- AUC(0-t) [4, 8]: 17 µM·h
- CL/F [4, 8]: 55.8 mL/min/kg
- Cmax [4, 8]: 4290 nM
- MRT [4, 8]: 4.14 h
- Tmax [4, 8]: 1.62 h
- half-life [4, 8]: 2.96 h
- half-life ([4]; 50 mg/kg, pH 7, male dogs, Study B, 50.0 mg/kg, Vehicle 2 (water/MSA pH7.0), Fasted): 3.47 h
- half-life ([4]; 50 mg/kg, pH 7, male dogs, Study B, 50.0 mg/kg, Vehicle 2 (water/MSA pH7.0), Fed (high fat)): 4.83 h
- AUC(0-inf) [4, 9]: 3.54 µM·h
- AUC(0-t) [4, 9]: 3.53 µM·h
- CL/F [4, 9]: 783 mL/min/kg
- Cmax [4, 9]: 1350 nM
- MRT [4, 9]: 3.79 h
- Tmax [4, 9]: 0.9 h
- AUC(0-inf) [4, 10]: 3.91 µM·h
- AUC(0-t) [4, 10]: 3.89 µM·h
- CL/F [4, 10]: 1160 mL/min/kg
- Cmax [4, 10]: 1050 nM
- MRT [4, 10]: 4.26 h
- Tmax [4, 10]: 1.5 h
- hygroscopicity by DVS isotherm [2]: non-hygroscopic
- moisture uptake (DVS) ([2]; at 90% relative humidity): 0.6 wt. %
- hygroscopicity compared to all other forms ([2]; compared to all other solid forms of Compound A): lowest hygroscopicity
- improvement in plasma concentration compared to Compound A free base [5]: ~2 ×
- solubility ([6]; FaSSGF, pH 1.99, fassgf or other biorelevant): 5990 µg/mL (≈ 9130 µM)
- solubility ([6]; FaSSIF, pH 4.86, fassif): 1730 µg/mL (≈ 2640 µM)
- solubility ([6]; FeSSIF, pH 4.58, fessif): 2500 µg/mL (≈ 3810 µM)
- solubility ([6]; PBS, pH 4.55, aqueous buffer): 1300 µg/mL (≈ 1980 µM)
- solubility in several media relative to Form 1 ([6]; several media, compared with Form 1): higher solubility
- Equilibrium crystal form ([6]; solubility sample in FaSSGF): Form 1E
- Equilibrium crystal form ([6]; solubility sample in FaSSIF): Form 1E
- Equilibrium crystal form ([6]; solubility sample in FeSSIF): Form 1E
- Equilibrium crystal form ([6]; solubility sample in H2O): Form 1E
- Equilibrium crystal form ([6]; solubility sample in PBS): Form 1E
- solubility ([6]; water, H2O, pH 3.93): 7760 µg/mL (≈ 11800 µM)
Compound: O=C1OCCCc2c(Cl)cc3[nH]ncc3c2-c2ncc3c(nc(OC[C@@]45CCCN4C[C@H](F)C5)nc3c2F)N2CCOC[C@H](C2)O1 [Form 1E]
- emesis ([4]; dogs, prior studies, 50 mg/kg and a high fat diet): suffered from emesis

- solubility ([6]; FaSSGF, pH 2.06, fassgf or other biorelevant): 4420 µg/mL (≈ 6740 µM)
- solubility ([6]; FaSSIF, pH 7.15, fassif): 35 µg/mL (≈ 53.3 µM)
- solubility ([6]; FeSSIF, pH 5.51, fessif): 560 µg/mL (≈ 854 µM)
- solubility ([6]; PBS, pH 7.04, aqueous buffer): 10 µg/mL (≈ 15.2 µM)
- Equilibrium crystal form ([6]; solubility sample in FaSSGF): Form 1
- Equilibrium crystal form ([6]; solubility sample in FaSSIF): Form 1
- Equilibrium crystal form ([6]; solubility sample in FeSSIF): Form 1
- Equilibrium crystal form ([6]; solubility sample in H2O): Form 1
- Equilibrium crystal form ([6]; solubility sample in PBS): Form 1
- solubility ([6]; water, H2O, pH 8.73): 0.3 µg/mL (≈ 0.457 µM)
Compound: O=C1OCCCc2c(Cl)cc3[nH]ncc3c2-c2ncc3c(nc(OC[C@@]45CCCN4C[C@H](F)C5)nc3c2F)N2CCOC[C@H](C2)O1 [Form 1]
